# Where a name gives a salt, the structure may show the parent alone. Read-outs that look alike come from different tables or passages of the source.
# Experiments:
# [1] = biological target: Bcl-w; design: method as in library vendor description; details: ref library vendor description; cited from earlier work
# [2] = tested on: Toxoplasma gondii RH-2F tachyzoites; assay: microbe, parasite or virus in culture; details: 72 h
# [3] = biological target: HIV-I integrase (IN); design: method as in S-inhibitor; details: ref S-inhibitor; cited from earlier work
# [4] = tested on: Aβ40; design: method as in library vendor description; details: γ-secretase inhibitor; ref library vendor description; cited from earlier work
# [5] = tested on: Aβ42; design: method as in library vendor description; details: γ-secretase inhibitor; ref library vendor description; cited from earlier work
# [6] = tested on: PDK-1; design: method as in library vendor description; details: ref library vendor description; read-out: IC50 PDK-1; cited from earlier work
# [7] = tested on: TBK1; design: method as in library vendor description; details: ref library vendor description; cited from earlier work
# [8] = tested on: IKKε; design: method as in library vendor description; details: ref library vendor description; cited from earlier work
# [9] = tested on: LPDE4; design: method as in S-inhibitor; details: ref S-inhibitor; cited from earlier work
# [10] = tested on: HPDE4; design: method as in S-inhibitor; details: ref S-inhibitor; cited from earlier work
# [11] = tested on: HDAC3; design: method as in S-inhibitor; details: ref S-inhibitor; cited from earlier work
# [12] = tested on: HDAC8; design: method as in S-inhibitor; details: ref S-inhibitor; cited from earlier work
# [13] = tested on: microtubule; design: method as in library vendor description; details: ref library vendor description; cited from earlier work
# [14] = tested on: microtubule; design: method as in S-inhibitor; details: ref S-inhibitor; cited from earlier work
# [15] = tested on: ROCK1; design: method as in S-inhibitor; details: ref S-inhibitor; cited from earlier work
# [16] = tested on: ROCK2; design: method as in S-inhibitor; details: ref S-inhibitor; cited from earlier work
# [17] = tested on: mTOR; design: method as in library vendor description; details: ref library vendor description; cited from earlier work
# [18] = tested on: PI3Kδ; design: method as in library vendor description; details: ref library vendor description; cited from earlier work
# [19] = tested on: PI3Kγ; design: method as in library vendor description; details: ref library vendor description; cited from earlier work
# [20] = tested on: PI3Kα; design: method as in library vendor description; details: ref library vendor description; cited from earlier work
# [21] = tested on: PI3Kβ; design: method as in library vendor description; details: ref library vendor description; cited from earlier work
# [22] = biological target: KSP (HsEg5); design: method as in S-inhibitor; details: ref S-inhibitor; cited from earlier work
# [23] = tested on: VEGFR2; design: method as in S-inhibitor; details: ref S-inhibitor; cited from earlier work
# [24] = tested on: PDGFRα; design: method as in S-inhibitor; details: ref S-inhibitor; cited from earlier work
# [25] = tested on: c-Kit; design: method as in S-inhibitor; details: ref S-inhibitor; cited from earlier work
# [26] = tested on: mTORC1; design: method as in library vendor description; details: ref library vendor description; cited from earlier work
# [27] = tested on: mTORC2; design: method as in library vendor description; details: ref library vendor description; cited from earlier work
# [28] = tested on: c-Kit; design: method as in library vendor description; details: ref library vendor description; cited from earlier work
# [29] = tested on: KDR; design: method as in library vendor description; details: ref library vendor description; cited from earlier work
# [30] = tested on: Flt; design: method as in library vendor description; details: ref library vendor description; cited from earlier work
# [31] = tested on: CSF-1R; design: method as in library vendor description; details: ref library vendor description; cited from earlier work
# [32] = tested on: c-Raf; design: method as in library vendor description; details: ref library vendor description; cited from earlier work
# [33] = tested on: Lck; design: method as in library vendor description; details: ref library vendor description; cited from earlier work
# [34] = in vitro; details: human, Host viability (%) mean
# [35] = tested on: Aurora B; design: method as in S-inhibitor; details: ref S-inhibitor; cited from earlier work
# [36] = tested on: Aurora C; design: method as in S-inhibitor; details: ref S-inhibitor; cited from earlier work
# [37] = biological target: sterol C14ɑ demethylase; design: method as in library vendor description; details: ref library vendor description; cited from earlier work
# [38] = tested on: JAK1; details: read-out: IC50, JAK1; ref S-inhibitor; cited from earlier work
# [39] = tested on: JAK3; details: read-out: IC50, JAK3; ref S-inhibitor; cited from earlier work
# [40] = tested on: MAO-B; design: method as in S-inhibitor; details: ref S-inhibitor; cited from earlier work
# [41] = biological target: Flk-1/KDR; design: method as in S-inhibitor; details: ref S-inhibitor; cited from earlier work
# [42] = biological target: PDGFRβ; design: method as in S-inhibitor; details: ref S-inhibitor; cited from earlier work
# [43] = tested on: ROCK; design: method as in S-inhibitor; details: ref S-inhibitor; cited from earlier work
# [44] = biological target: farnesyltransferase (FTase); design: method as in S-inhibitor; details: ref S-inhibitor; cited from earlier work
# [45] = biological target: HCV polymerase; design: method as in S-inhibitor; details: ref S-inhibitor; cited from earlier work
# [46] = tested on: Endothelin A (ETA); design: method as in S-inhibitor; details: ref S-inhibitor; cited from earlier work
# [47] = tested on: Toxoplasma gondii RH-2F tachyzoites; details: preliminary screen, mean
# [48] = tested on: human foreskin fibroblasts (HFFs)
# [49] = tested on: VEGFR1; design: method as in library vendor description; details: ref library vendor description; cited from earlier work
# [50] = tested on: VEGFR3; design: method as in library vendor description; details: ref library vendor description; cited from earlier work
# [51] = tested on: Tie2; design: method as in library vendor description; details: ref library vendor description; cited from earlier work
# [52] = tested on: Ron; design: method as in library vendor description; details: ref library vendor description; cited from earlier work
# [53] = read-out: Parasite inhibition (%) mean, preliminary screen, mean
molecule,measurement,setting,value
CC1(C)CCC(c2ccc(Cl)cc2)=C(CN2CCN(c3ccc(C(=O)NS(=O)(=O)c4ccc(N[C@H](CCN5CCOCC5)CSc5ccccc5)c(S(=O)(=O)C(F)(F)F)c4)cc3)CC2)C1 [ABT-263 (Navitoclax)],Ki,[1],≤ 1 nM
same,inhibition of growth at 5 µM,[2]; [53],33.5%
Cn1c(N2CCCCS2(=O)=O)nc(C(=O)NCc2ccc(F)cc2)c(O)c1=O [BMS-707035],IC50,[3],15 nM
same,inhibition of growth at 5 µM,[2]; [53],0.2%
NC(=O)[C@@H](CCC(F)(F)F)N(Cc1ccc(-c2ncon2)cc1F)S(=O)(=O)c1ccc(Cl)cc1 [BMS-708163 (Avagacestat)],IC50,[4],0.3 nM
same,IC50,[5],0.27 nM
same,inhibition of growth at 5 µM,[2]; [53],8.7%
O=C(NCCCNc1nc(Nc2cccc(NC(=O)N3CCCC3)c2)ncc1I)c1cccs1 [BX-795],IC50,[6],111 nM
same,IC50,[7],6 nM
same,IC50,[8],41 nM
same,inhibition of growth at 5 µM,[2]; [53],0.7%
COc1ccc(C2(C#N)CCC(C(=O)O)CC2)cc1OC1CCCC1 (centres unmarked) [Cilomilast (SB-207499)],IC50,[9],100 nM
same,IC50,[10],120 nM
same,inhibition of growth at 5 µM,[2]; [53],65.2%
Cc1cc(Cl)ccc1OCCCC(=O)NO [Droxinostat],IC50,[11],16900 nM
same,IC50,[12],1460 nM
same,inhibition of growth at 5 µM,[2]; [53],7.2%
C/C(=C\c1csc(C)n1)[C@@H]1C[C@@H]2O[C@@H]2CCC[C@H](C)[C@H](O)[C@@H](C)C(=O)C(C)(C)[C@@H](O)CC(=O)O1 [Epothilone A],EC0.01 microtubule-stabilizing,[13],Epothilone A is a Taxol-like microtubule-stabilizing agent with EC0.01 of 2 μM.
same,inhibition of growth at 5 µM,[2]; [53],20.4%
C/C(=C\c1csc(C)n1)[C@H]1C[C@@H]2O[C@]2(C)CCC[C@H](C)[C@H](O)[C@@H](C)C(=O)C(C)(C)[C@H](O)CC(=O)O1 [Epothilone B (EPO906)],"EC0.01, microtubule stabilization",[14],Epothilone B is a Taxol-like microtubule-stabilizing agent with EC0.01 of 1.8 μM.
same,inhibition of growth at 5 µM,[2]; read-out: Parasite inhibition (%) mean,36.5%
CC1=C(C(=O)Nc2cc3cn[nH]c3cc2F)C(c2ccc(C(F)(F)F)cc2)CC(=O)N1 (centres unmarked) [GSK429286A],IC50,[15],14 nM
same,IC50,[16],63 nM
same,inhibition of growth at 5 µM,[2]; [53],0.9%
O=C1NC(=O)/C(=C/c2ccc3nccc(-c4ccncc4)c3c2)S1 [GSK1059615],IC50,[17],12 nM
same,IC50,[18],2 nM
same,IC50,[19],5 nM
same,IC50,[20],0.4 nM
same,IC50,[21],0.6 nM
same,inhibition of growth at 5 µM,[2]; [53],40.6%
Cc1ccc(C(=O)N(CCCN)[C@@H](c2nc3cc(Cl)ccc3c(=O)n2Cc2ccccc2)C(C)C)cc1 [Ispinesib (SB-715992)],Ki,[22],1.7 nM
same,inhibition of growth at 5 µM,[2]; [53],2.1%
COc1cc2nccc(Oc3ccc(NC(=O)Nc4ccc(F)cc4F)c(F)c3)c2cc1OC [Ki8751],IC50,[23],0.9 nM
same,IC50,[24],67 nM
same,IC50,[25],40 nM
same,inhibition of growth at 5 µM,[2]; [53],-45.8%
COc1ccc(-c2ccc3c(N4CCOCC4)nc(N4C[C@@H](C)O[C@@H](C)C4)nc3n2)cc1CO [Ku-0063794],IC50,[26],[…]
same,inhibition of growth at 5 µM,[2]; [53],31.4%
O=C(Nc1ccc(OC(F)(F)F)cc1)c1sccc1NCc1ccnc2ccccc12 [OSI-930],IC50,[28],80 nM
same,IC50,[29],9 nM
same,IC50,[30],8 nM
same,IC50,[31],15 nM
same,IC50,[32],41 nM
same,IC50,[33],22 nM
same,inhibition of growth at 5 µM,[2]; [53],1%
CCc1cccc(CC)c1NC(=O)N1Cc2n[nH]c(NC(=O)c3ccc(N4CCN(C)CC4)cc3)c2C1 [PHA-680632],viability at 72 h,[34],45.2%
same,IC50,[35],135 nM
same,IC50,[36],120 nM
same,inhibition of growth at 5 µM,[2]; [53],88.8%
CC[C@@H]([C@H](C)O)n1ncn(-c2ccc(N3CCN(c4ccc(OC[C@@H]5CO[C@@](Cn6cncn6)(c6ccc(F)cc6F)C5)cc4)CC3)cc2)c1=O [Posaconazole],IC50,[37],0.25 nM
same,inhibition of growth at 5 µM,[2]; [53],0.6%
N#CC[C@H](C1CCCC1)n1cc(-c2ncnc3[nH]ccc23)cn1 [Ruxolitinib (INCB018424)],IC50,[38],[…]
same,inhibition of growth at 5 µM,[2]; [53],10.2%
C[C@H](NCc1ccc(OCc2cccc(F)c2)cc1)C(N)=O [Safinamide Mesylate (FCE28073)],IC50,[40],[…]
same,inhibition of growth at 5 µM,[2]; [53],5.9%
Cc1[nH]c(/C=C2\C(=O)Nc3ccccc32)c(C)c1CCC(=O)O [TSU-68 (SU6668)],Ki,[41],2100 nM
same,Ki,[42],8 nM
same,inhibition of growth at 5 µM,[2]; [53],2.8%
O=C(NCc1ccccc1)c1csc(Nc2ccncn2)n1 [Thiazovivin],IC50,[43],~500 nM
same,inhibition of growth at 5 µM,[2]; [53],-0.7%
Cn1cncc1[C@@](N)(c1ccc(Cl)cc1)c1ccc2c(c1)c(-c1cccc(Cl)c1)cc(=O)n2C [Tipifarnib (Zarnestra)],IC50,[44],0.6 nM
same,inhibition of growth at 5 µM,[2]; [53],6.5%
CC(C)(C)C#Cc1cc(N(C(=O)[C@H]2CC[C@H](C)CC2)[C@H]2CC[C@H](O)CC2)c(C(=O)O)s1 [VX-222],IC50,[45],940 to 1200 nM
same,inhibition of growth at 5 µM,[2]; [53],9.6%
COc1nc(C)cnc1NS(=O)(=O)c1cccnc1-c1ccc(-c2nnco2)cc1 [Zibotentan (ZD4054)],IC50,[46],21 nM
same,inhibition of growth at 5 µM,[2]; [53],1.8%
MGCD-265,Parasite inhibition (%) mean,[47],88.8%
same,Host viability (%) mean,[48],68.1%
same,IC50,[49],3 nM
same,IC50,[50],4 nM
same,IC50,[51],7 nM
same,IC50,[52],2 nM

# Source: PMC7216583 (Parasites & Vectors, 2020)
